Test results taken from US20120214847A1, “2-[1-PHENYL-5-HYDROXY-4a-SUBSTITUTED-HEXAHYDROCYCLOPENTA[F]INDAZOL-5-YL]ETHYL PHENYL DERIVATIVES AS GLUCOCORTICOID RECEPTOR LIGANDS” (Merck Sharp & Dohme Corp., priority 2009, published 2012).

Biological target: T1, human GR (Homo sapiens, UniProt P04150)
T1 construct: naturally expresses the human GR; endogenous in cells
T1 sequence (P04150 1-777): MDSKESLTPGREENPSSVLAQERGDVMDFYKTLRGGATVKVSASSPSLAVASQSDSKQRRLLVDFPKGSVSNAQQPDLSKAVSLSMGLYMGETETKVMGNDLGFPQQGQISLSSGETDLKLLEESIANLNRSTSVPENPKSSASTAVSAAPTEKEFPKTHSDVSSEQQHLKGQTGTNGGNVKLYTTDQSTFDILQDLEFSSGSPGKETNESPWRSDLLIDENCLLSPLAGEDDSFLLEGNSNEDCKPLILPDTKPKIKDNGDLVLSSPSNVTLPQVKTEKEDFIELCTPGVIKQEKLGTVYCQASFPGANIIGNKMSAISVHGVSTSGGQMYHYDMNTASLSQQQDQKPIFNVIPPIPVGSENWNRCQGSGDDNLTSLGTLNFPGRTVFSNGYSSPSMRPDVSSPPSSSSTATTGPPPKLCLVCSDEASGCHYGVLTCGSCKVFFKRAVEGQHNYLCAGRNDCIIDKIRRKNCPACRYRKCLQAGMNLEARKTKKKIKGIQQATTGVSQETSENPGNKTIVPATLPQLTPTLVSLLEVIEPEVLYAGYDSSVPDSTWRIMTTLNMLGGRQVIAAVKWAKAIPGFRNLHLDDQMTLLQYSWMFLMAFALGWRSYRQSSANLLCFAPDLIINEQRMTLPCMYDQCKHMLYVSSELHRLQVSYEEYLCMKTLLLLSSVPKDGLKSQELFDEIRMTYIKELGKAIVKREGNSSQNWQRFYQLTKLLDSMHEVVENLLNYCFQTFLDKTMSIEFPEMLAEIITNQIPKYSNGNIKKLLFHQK
Assay: Transrepression assay (GITAR), TNFα-β-lactamase reporter in U937 cells
Format: cell-based
Details: for EC50: U937 cells, IP = inflection point; for Emax: U-937, U937 cells, activity repressed by 100 nM dexamethasone alone set as 100%
Description: Transrepression Assay (GITAR)
This assay assesses the ability of test compounds to control transcription from the TNFα-β-lactamase reporter gene in U937 cells, a human myelomonocytic leukemia cell line that naturally expresses the human GR. The assay measures compound dependent-repression of the TNFa promoter linked to a reporter gene.
The human U937 cells that had been stablely transfected with the TNF-a promoter driving ˜-lactamase are used for this assay. U937 cells contain an endogenous glucocorticoid receptor (GR). Cells are maintained in RPMI 1640 Growth medium (GibcoCat#11875-093) containing 25 mM HEPES, 10% FBS, 2 mM L-Glutamine, 1 mM Sodium pyruvate, 25 μg/ml Gentamicin (Gibed Cat#1571 0-064), 1:1000 2-Mercaptoethanol (Gibco Cat#21985-023) and 0.8 mg/ml G418 (Gibco Cat#10131-027). The density of the cells in the flask needs to be about 1×10^6-3×10^6/ml at the time of harvest. Usually, the cells are split to 1.2˜1.4×10^5/ml (1:10) 3 days prior to the assay. 50,000 cells/well are plated in 96 well black-walled plates the day of assay. Test compounds are added 10 J.lL/well, and cells are incubated at 37° C. for 30˜45 min. For assaying compounds, first dilute 1:10 in DMSO to make 1 mM, then further dilute 1:100 in medium to make 10× stock prior to adding to the cells. Add 50 ng/ml PMA (Sigma, cat#P8139) 10 μL/well to a final concentration 5 ng/ml, and 1 μg/ml LPS (Sigma, cat#L4130) 10 μL/well to a final concentration 100 ng/ml. Incubate cells at 370 C overnight for −18 hr. PMA is stored frozen as […] in DMSO. Dilute 1:10 in DMSO for a working stock of 10 μg/ml and store at −20° C. For assaying, dilute the 10 μg/ml working stock 1:200 in medium to make a 10× solution (50 ng/ml). Store frozen LPS at 1 mg/ml in PBS, dilute 1:1000 in medium to make 10×μg/ml) for the assay. Add 6× loading buffer (CCF2-AM) 20 μL/well, and incubate at room temperature for 70-90 min. […] The activity repressed by 100 nM dexamethasone alone is set as 100% activity.

| SMILES | EC50 [nM] | Emax [%] |
| --- | --- | --- |
| CCS(=O)(=O)c1ccccc1CC[C@]1(O)CCC2=Cc3c(cnn3-c3ccc(F)cc3)C[C@@]21C1CC1 [Example 59, (4aR,5R)-4a-Cyclopropyl-5-{2-[2-(ethylsulfonyl)phenyl]ethyl}-1-(4-fluorophenyl)-1,4,4a,5,6,7-hexahydrocyclopenta[f]indazol-5-ol] | 74 | 88 |
| OC(C[C@]1(O)CCC2=Cc3c(cnn3-c3ccc(F)cc3)C[C@@]21C1CC1)c1ccccn1 (stereo partly drawn) [Example 78, (4aR,5R)-4a-Cyclopropyl-1-(4-fluorophenyl)-5-[2-hydroxy-2-(pyridin-2-yl)ethyl]-1,4,4a,5,6,7-hexahydrocyclopenta[f]indazol-5-ol] | 213 | 49 |
| CC[C@]12Cc3cnn(-c4ccc(F)cc4)c3C=C1CC[C@@]2(O)CC(O)c1cc(C#N)ccn1 (stereo partly drawn) [Example 72, 2-{2-[(4aS,5R)-4a-Ethyl-1-(4-fluorophenyl)-5-hydroxy-1,4,4a,5,6,7-hexahydrocyclopenta[f]indazol-5-yl]-1-hydroxyethyl}pyridine-4-carbonitrile] | 228 | 51 |
| CC[C@]12Cc3cnn(-c4ccc(F)cc4)c3C=C1CC[C@@]2(O)CCc1cc(C)ccn1 [Example 33, (4aS,5R)-4a-Ethyl-1-(4-fluorophenyl)-5-[2-(4-methylpyridin-2-yl)ethyl]-1,4,4a,5,6,7-hexahydrocyclopenta[f]indazol-5-ol] | 84 | 82 |
| CC[C@]12Cc3cnn(-c4ccc(F)cc4)c3C=C1CC[C@@]2(O)CCc1ccc(F)cc1C(N)=O [Example 8, 2-{2-[(4aS,5R)-4a-Ethyl-1-(4-fluorophenyl)-5-hydroxy-1,4,4a,5,6,7-hexahydrocyclopenta[f]indazol-5-yl]ethyl}-5-fluorobenzamide] | 90 | 88 |
| CC[C@]12Cc3cnn(-c4ccc(F)cc4)c3C=C1CC[C@@]2(O)CCc1cccc(OC)c1C(N)=O [Example 37, 2-{2-[(4aS,5R)-4a-Ethyl-1-(4-fluorophenyl)-5-hydroxy-1,4,4a,5,6,7-hexahydrocyclopenta[f]indazol-5-yl]ethyl}-6-methoxybenzamide] | 8 | 90 |
| CC[C@]12Cc3cnn(-c4ccc(F)cc4)c3C=C1CC[C@@]2(O)CCc1ncccc1F [Example 17, (4aS,5R)-4a-Ethyl-1-(4-fluorophenyl)-5-[2-(3-fluoropyridin-2-yl)ethyl]-1,4,4a,5,6,7-hexahydrocyclopenta[f]indazol-5-ol] | 44 | 89 |
| CC[C@]12Cc3cnn(-c4ccc(F)cc4)c3C=C1CC[C@@]2(O)CC(O)c1cncc(F)c1 (stereo partly drawn) [Example 73, (4aS,5R)-4a-Ethyl-1-(4-fluorophenyl)-5-[2-(5-fluoropyridin-3-yl)-2-hydroxyethyl]-1,4,4a,5,6,7-hexahydrocyclopenta[f]indazol-5-ol] | 198 | 71 |
| CC[C@]12Cc3cnn(-c4ccc(F)cc4)c3C=C1CC[C@@]2(O)CC(O)c1ncccc1F (stereo partly drawn) [Example 76, (4aS,5R)-4a-Ethyl-1-(4-fluorophenyl)-5-[2-(3-fluoropyridin-2-yl)-2-hydroxyethyl]-1,4,4a,5,6,7-hexahydrocyclopenta[f]indazol-5-ol] | 275 | 64 |
| NC(=O)CNC(=O)c1cccnc1CC[C@]1(O)CCC2=Cc3c(cnn3-c3ccc(F)cc3)C[C@@]21C1CC1 [Example 43, N-(2-Amino-2-oxoethyl)-2-{2-[(4aR,5R)-4a-cyclopropyl-1-(4-fluorophenyl)-5-hydroxy-1,4,4a,5,6,7-hexahydrocyclopenta[f]indazol-5-yl]ethyl}pyridine-3-carboxamide] | 52 | 86 |
| CC[C@]12Cc3cnn(-c4ccc(F)cc4)c3C=C1CC[C@@]2(O)CCc1nccc(OC)c1CC(N)=O [Example 64, 2-(2-{2-[(4aS,5R)-4a-Ethyl-1-(4-fluorophenyl)-5-hydroxy-1,4,4a,5,6,7-hexahydrocyclopenta[f]indazol-5-yl]ethyl}-4-methoxypyridin-3-yl)acetamide] | 72 | 77 |
| O=C(NCCO)c1ccccc1CC[C@]1(O)CCC2=Cc3c(cnn3-c3ccc(F)cc3)C[C@@]21C1CC1 [Example 50, 2-{2-[(4aR,5R)-4a-Cyclopropyl-1-(4-fluorophenyl)-5-hydroxy-1,4,4a,5,6,7-hexahydrocyclopenta[f]indazol-5-yl]ethyl}-N-(2-hydroxyethyl)benzamide] | 9 | 88 |
| Cc1ccnc(CC[C@]2(O)CCC3=Cc4c(cnn4-c4ccc(F)cc4)C[C@@]32C2CC2)c1 [Example 36, (4aR,5R)-4a-Cyclopropyl-1-(4-fluorophenyl)-5-[2-(4-methylpyridin-2-yl)ethyl]-1,4,4a,5,6,7-hexahydrocyclopenta[f]indazol-5-ol] | 114 | 72 |
| NC(=O)c1cc(F)cnc1CC[C@]1(O)CCC2=Cc3c(cnn3-c3ccc(F)cc3)C[C@@]21C1CC1 [Example 4, 2-{2-[(4aR,5R)-4a-Cyclopropyl-1-(4-fluorophenyl)-5-hydroxy-1,4,4a,5,6,7-hexahydrocyclopenta[f]indazol-5-yl]ethyl}-5-fluoropyridine-3-carboxamide] | 83 | 71 |
| CC[C@]12Cc3cnn(-c4ccc(F)cc4)c3C=C1CC[C@@]2(O)CCc1ncccc1C(N)=O [Example 52, 2-{2-[(4aS,5R)-4a-Ethyl-1-(4-fluorophenyl)-5-hydroxy-1,4,4a,5,6,7-hexahydrocyclopenta[f]indazol-5-yl]ethyl}pyridine-3-carboxamide] | 53 | 85 |
| CC[C@]12Cc3cnn(-c4ccc(F)cc4)c3C=C1CC[C@@]2(O)CCc1ccccc1S(=O)(=O)C(C)C [Example 40, (4aS,5R)-4a-Ethyl-1-(4-fluorophenyl)-5-{2-[2-(propan-2-ylsulfonyl)phenyl]ethyl}-1,4,4a,5,6,7-hexahydrocyclopenta[f]indazol-5-ol] | 38 | 83 |
| CC[C@]12Cc3cnn(-c4ccc(F)cc4)c3C=C1CC[C@@]2(O)CCc1ccccc1CCC(N)=O [Example 22, 3-(2-{2-[(4aS,5R)-4a-Ethyl-1-(4-fluorophenyl)-5-hydroxy-1,4,4a,5,6,7-hexahydrocyclopenta[f]indazol-5-yl]ethyl}phenyl)propanamide] | 148 | 89 |
| CC[C@]12Cc3cnn(-c4cccc(F)c4)c3C=C1CC[C@@]2(O)CCc1cccc(F)c1C(N)=O [Example 12, 2-{2-[(4aS,5R)-4a-Ethyl-1-(3-fluorophenyl)-5-hydroxy-1,4,4a,5,6,7-hexahydrocyclopenta[f]indazol-5-yl]ethyl}-6-fluorobenzamide] | 25 | 87 |
| NC(=O)c1ccccc1CC[C@]1(O)CCC2=Cc3c(cnn3-c3ccc(F)cc3)C[C@@]21C1CC1 [Example 23, 2-{2-[(4aR,5R)-4a-Cyclopropyl-1-(4-fluorophenyl)-5-hydroxy-1,4,4a,5,6,7-hexahydrocyclopenta[f]indazol-5-yl]ethyl}benzamide] | 22 | 77 |
| CC[C@]12Cc3cnn(-c4ccc(F)cc4)c3C=C1CC[C@@]2(O)CC(O)c1c(F)ccnc1Cl (stereo partly drawn) [Example 74, (4aS,5R)-5-[2-(2-Chloro-4-fluoropyridin-3-yl)-2-hydroxyethyl]-4a-ethyl-1-(4-fluorophenyl)-1,4,4a,5,6,7-hexahydrocyclopenta[f]indazol-5-ol] | 103 | 72 |
